Experimental data as given in patent publication US7880007B2, “Bicyclic substituted phenyl piperidine modulators of muscarinic receptors” (Vertex Pharmaceuticals Incorporated, priority 2004, dated 2011).

Tests used:
Assay type in all cases: cell-based
M4 muscarinic receptor = target: T1, M4 muscarinic receptor (Homo sapiens, UniProt P08173); test: Functional mobilization of intracellular calcium (FLIPR), M4-CHO cells; conditions: for M4 Activity: M4-CHO cells, calcium mobilization (FLIPR)
T1 construct: expressed in transfected cells; host or cells: CHO (M4-CHO)
T1 sequence (P08173 1-479): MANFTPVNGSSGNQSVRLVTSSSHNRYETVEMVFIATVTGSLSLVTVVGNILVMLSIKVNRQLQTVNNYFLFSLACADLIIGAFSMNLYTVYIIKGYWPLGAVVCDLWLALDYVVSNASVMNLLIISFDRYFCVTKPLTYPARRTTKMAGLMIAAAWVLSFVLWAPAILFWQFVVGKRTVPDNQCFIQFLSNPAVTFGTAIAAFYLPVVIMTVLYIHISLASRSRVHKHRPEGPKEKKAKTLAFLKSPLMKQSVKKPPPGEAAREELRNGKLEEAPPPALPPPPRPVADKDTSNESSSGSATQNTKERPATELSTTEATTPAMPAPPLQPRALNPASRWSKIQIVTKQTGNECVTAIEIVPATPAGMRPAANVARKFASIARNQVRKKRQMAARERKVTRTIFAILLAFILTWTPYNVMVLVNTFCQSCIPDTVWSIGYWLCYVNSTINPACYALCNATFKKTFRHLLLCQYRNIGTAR
Method in brief: (§1)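 Calcium mobilisation read by FLIPR over 60 s (ex 488/em 540 nm) in recombinant muscarinic CHO lines loaded with calcium dye plus 1 mM probenecid. Compounds tested as agonists alone, or as inhibitors against EC80 carbachol after 15 min pre-incubation or co-addition; 0.5% DMSO; efficacy scaled to carbachol maximal response.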

M1 muscarinic receptor = target: T2, M1 muscarinic receptor (Homo sapiens, UniProt P11229); test: Functional mobilization of intracellular calcium (FLIPR), M1-CHO cells; conditions: for M1 Activity: M1-CHO cells, calcium mobilization (FLIPR)
T2 construct: expressed in transfected cells; host or cells: CHO (M1-CHO)
T2 sequence (P11229 1-460): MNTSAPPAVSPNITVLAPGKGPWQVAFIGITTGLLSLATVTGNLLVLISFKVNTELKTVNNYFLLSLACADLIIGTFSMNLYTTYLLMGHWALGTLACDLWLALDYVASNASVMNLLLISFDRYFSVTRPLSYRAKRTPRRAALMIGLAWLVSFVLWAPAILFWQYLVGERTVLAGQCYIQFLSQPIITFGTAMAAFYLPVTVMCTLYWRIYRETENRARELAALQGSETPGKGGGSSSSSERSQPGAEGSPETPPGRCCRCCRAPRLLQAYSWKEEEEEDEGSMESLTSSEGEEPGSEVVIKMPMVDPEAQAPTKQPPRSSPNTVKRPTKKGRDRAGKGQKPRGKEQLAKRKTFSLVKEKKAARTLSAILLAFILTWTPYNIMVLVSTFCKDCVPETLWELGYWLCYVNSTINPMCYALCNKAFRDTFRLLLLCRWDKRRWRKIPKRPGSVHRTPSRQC
Method in brief: as §1

M2 muscarinic receptor = target: T3, M2 muscarinic receptor (Homo sapiens, UniProt P08172); test: Functional mobilization of intracellular calcium (FLIPR), M2-CHO cells; conditions: for M2 Activity: M2-CHO cells, calcium mobilization (FLIPR)
T3 construct: expressed in transfected cells; host or cells: CHO (M2-CHO)
T3 sequence (P08172 1-466): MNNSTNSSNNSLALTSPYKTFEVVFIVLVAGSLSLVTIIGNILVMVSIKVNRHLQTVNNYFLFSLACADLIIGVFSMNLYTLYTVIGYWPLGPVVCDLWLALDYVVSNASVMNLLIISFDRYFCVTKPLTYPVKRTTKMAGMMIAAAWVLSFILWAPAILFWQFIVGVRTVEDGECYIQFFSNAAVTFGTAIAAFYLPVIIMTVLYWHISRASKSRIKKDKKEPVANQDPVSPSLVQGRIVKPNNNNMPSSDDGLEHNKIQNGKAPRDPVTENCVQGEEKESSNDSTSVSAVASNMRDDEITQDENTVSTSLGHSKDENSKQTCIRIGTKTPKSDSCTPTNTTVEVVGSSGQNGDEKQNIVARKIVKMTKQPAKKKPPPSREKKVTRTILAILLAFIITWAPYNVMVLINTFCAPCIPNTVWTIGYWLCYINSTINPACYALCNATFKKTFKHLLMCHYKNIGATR
Method in brief: as §1

M3 muscarinic receptor = target: T4, M3 muscarinic receptor (Homo sapiens, UniProt P20309); test: Functional mobilization of intracellular calcium (FLIPR), M3-CHO cells; conditions: for M3 Activity: M3-CHO cells, calcium mobilization (FLIPR)
T4 construct: expressed in transfected cells; host or cells: CHO (M3-CHO)
Procedure: Functional Mobilization of Intracellular Calcium to Determine Muscarinic Receptor Activity:
CHO cells expressing muscarinic receptors (M1 to M5) are grown as monolayers in tissue culture flasks at 37° C. in a humidified atmosphere containing 5% CO2 and passaged every 3-5 days. The growth media is Dulbecco's modified eagles medium (DMEM, Gibco Cat #12430-054), containing 25 mM Hepes and supplemented with Fetal Bovine Serum (Hyclone, cat #SH30071.03), 0.1 mM of MEM non-essential amino acids (GIBCO, Cat #11140-050), 1 mM MEM Sodium Pyruvate (GIBCO Cat #11360-070) and 100 units/ml of Penicillin G and 100 μg/ml of Streptomycin (GIBCO Cat #15140-122). The recombinant muscarinic receptor cell lines are grown under antibiotic pressure with media containing 25 μg/ml zeocin and 500 μg/ml G418 (M1-CHO), 4 μg/ml puromycin, 50 μg/ml zeocin and 2.5 μg/ml blasticidin (M2 and M4-CHO) or 50 μg/ml zeocin and 4 μg/ml puromycin (M3 and M5-CHO).
Cells are harvested at 80-90% confluence using Versene (GIBCO Cat #15040-066), collected by centrifugation and seeded 18-24 hrs prior to running the calcium assay at a density of 5,000-10,000 cells/well in […], clear-bottomed 384-well plates (BD Biocoat, poly-D-lysine, Cat #356663). The day of the experiment, the cells are washed with a plate washer (Bioteck Instruments, ELX 405) using bath 1 buffer (140-mM NaCl, 4.5-mM KCl, 2-mM CaCl2, 1-mM MgCl2, 10-mM Hepes-Na, 10-mM Glucose, pH 7.4, with NaOH) containing 1 mM Probenecid. Next, the calcium dye Fluo-3 (25 μl/well of Fluo-3 AM at 4 μM, Molecular Probes F-1241, in Bath 1 buffer containing 1 mM Probenecid) is added to the 25 μl of Bath 1 remaining in each well after the plate wash and the dye is loaded at 37° C. in the tissue culture incubator for 60-90 min. The fluorescent dye is removed using the plate washer with Bath 1 containing 1 mM Probenecid, leaving 25 μl/well of this solution after the wash. Alternatively, cells can be loaded with the calcium indicator from Molecular Devices (Calcium 3 Assay Reagents, Cat #R7181) adding 5 μl of a 5× solution dye in Bath 1 containing 1 mM Probenecid (10 ml per dye flask cat #R7182 to generate a solution 20×) to 20 μl of the same buffer. After loading for 60 min, the experiment can be run without having to remove the dye.
Compounds are prepared at a 2× fold concentration in a 96-well plate (round bottom, Costar Corning cat #3656), by reconstituting the pre-spotted compounds in bath 1 containing 1 mM probenecid. The final concentration DMSO is 0.5%, and the amount of DMSO is normalized across the assay plate. To determine an agonist action of the compounds on muscarinic receptors, the reconstituted compounds are added (25 μl compound/well) to the cell assay plate (containing 25 μl/well) using the multi-channel robotic system of the FLIPR 3 Instrument (Molecular Devices, Sunnyvale, Calif.). To determine a functional inhibitory action of the compounds on muscarinic receptors, the reconstituted compounds are added (25 μl compound/well) to the assay plate and pre-incubated for 15 min prior to adding 25 μl of Carbachol at 3× the EC80 for each muscarinic subtype. Alternatively, the compounds can be co-applied simultaneously with the agonist. In both assay modes, the fluorescence is recorded for 60 sec (excitation wavelength is […] and emission wavelength 540 nm) using the FLIPR 3 instrument.
The potency, efficacy and selectivity of the muscarinic compounds were evaluated by screening the compound activity across the whole family (M1 to M5 cells). Compounds were also screened for activity on other proteins such as other GPCRs and ion channels to determine selectivity on M4 receptors.
Examples of activities and efficacies of the muscarinic compounds of formulae (I, Ia, Ib, and II) on modulating M1, M2, M3 and M4 receptors are shown below in Table 3. […]

[1] = 100% efficacy is the maximum response obtained with the Carbachol control
[2] = 100% efficacy = maximum response obtained with the Carbachol control

T4 sequence (P20309 whole entry): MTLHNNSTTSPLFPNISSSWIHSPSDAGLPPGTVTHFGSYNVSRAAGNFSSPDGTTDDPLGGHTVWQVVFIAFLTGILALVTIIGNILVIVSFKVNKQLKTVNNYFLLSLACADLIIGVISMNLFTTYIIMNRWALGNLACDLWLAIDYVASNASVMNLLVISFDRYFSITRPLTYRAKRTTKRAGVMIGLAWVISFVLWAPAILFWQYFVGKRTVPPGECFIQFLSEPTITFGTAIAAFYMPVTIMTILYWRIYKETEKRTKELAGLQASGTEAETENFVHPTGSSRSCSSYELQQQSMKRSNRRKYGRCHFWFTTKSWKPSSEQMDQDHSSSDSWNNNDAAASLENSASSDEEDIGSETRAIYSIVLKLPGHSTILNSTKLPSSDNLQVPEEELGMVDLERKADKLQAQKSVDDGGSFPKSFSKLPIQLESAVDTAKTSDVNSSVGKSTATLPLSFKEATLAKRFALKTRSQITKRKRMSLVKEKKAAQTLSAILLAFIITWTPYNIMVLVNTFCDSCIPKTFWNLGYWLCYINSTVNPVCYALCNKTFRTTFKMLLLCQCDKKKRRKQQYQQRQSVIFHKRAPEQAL

Row | Emax (M4 muscarinic receptor; [1]) | Emax (M1 muscarinic receptor; [1]) | Emax (M2 muscarinic receptor; [1]) | Emax (M3 muscarinic receptor; [1]) | Emax (M4 muscarinic receptor; [2]) | Emax (M1 muscarinic receptor; [2]) | Emax (M2 muscarinic receptor; [2]) | Emax (M3 muscarinic receptor; [2]) | SMILES | M4 Activity (M4 muscarinic receptor) | M1 Activity (M1 muscarinic receptor) | M2 Activity (M2 muscarinic receptor) | M3 Activity (M3 muscarinic receptor)
1 | 25 to 100% | 25 to 100% | 25 to 100% | < 25% |  |  |  |  | Cc1ccc(F)cc1C1CCN(CC2C[C@H]3CC[C@H]2C3)CC1 (stereo partly drawn) [Compound 424] | +++ (activity was measured to be less than 1.0 μM) | ++ (activity was measured to be from 1.0 μM to 5.0 μM) | ++ (activity was measured to be from 1.0 μM to 5.0 μM) | + (activity was measured to be greater than 5.0 μM)
2 |  |  |  |  | 25 to 100% | 25 to 100% | < 25% | < 25% | FC(F)(F)Oc1ccccc1C1CCN([C@H]2C[C@H]3CC[C@H]2C3)CC1 [Compound 183] | +++ (activity was measured to be less than 1.0 μM) | + (activity was measured to be greater than 5.0 μM) | + (activity was measured to be greater than 5.0 μM) | + (activity was measured to be greater than 5.0 μM)
3 |  |  |  |  | < 25% | < 25% | < 25% | < 25% | COc1ccccc1C1CCN(C2CCC(C(C)C)CC2)CC1 (stereo not drawn) [Compound 155] | + (activity was measured to be greater than 5.0 μM) | + (activity was measured to be greater than 5.0 μM) | + (activity was measured to be greater than 5.0 μM) | + (activity was measured to be greater than 5.0 μM)
4 | 25 to 100% | < 25% | < 25% | < 25% |  |  |  |  | COc1cccc(-c2ccccc2C2CCN([C@H]3C[C@H]4CC[C@H]3C4)CC2)c1OC [Compound 402] | ++ (activity was measured to be from 1.0 μM to 5.0 μM) | + (activity was measured to be greater than 5.0 μM) | + (activity was measured to be greater than 5.0 μM) | + (activity was measured to be greater than 5.0 μM)
5 |  |  |  |  | 25 to 100% | < 25% | < 25% | < 25% | COc1ccc(-c2ccccc2Cl)cc1C1CCN([C@H]2C[C@H]3CC[C@H]2C3)CC1 [Compound 178] | + (activity was measured to be greater than 5.0 μM) | + (activity was measured to be greater than 5.0 μM) | + (activity was measured to be greater than 5.0 μM) | + (activity was measured to be greater than 5.0 μM)
6 |  |  |  |  | 25 to 100% | 25 to 100% | < 25% | < 25% | COc1ccccc1C1CCN(C2CC3CCC2C3)CC1 (stereo not drawn) [Compound 79] | +++ (activity was measured to be less than 1.0 μM) | + (activity was measured to be greater than 5.0 μM) | + (activity was measured to be greater than 5.0 μM) | + (activity was measured to be greater than 5.0 μM)
7 |  |  |  |  | 25 to 100% | 25 to 100% | < 25% | < 25% | CCOC(=O)N1CCC(N2CCC(F)(c3cc(F)ccc3OC)CC2)CC1 [Compound 262] | +++ (activity was measured to be less than 1.0 μM) | +++ (activity was measured to be less than 1.0 μM) | + (activity was measured to be greater than 5.0 μM) | + (activity was measured to be greater than 5.0 μM)
8 |  |  |  |  | 25 to 100% | 25 to 100% | < 25% | < 25% | COc1ccc(Cl)cc1C1CCN(C2CCC3(CC2)OCCO3)CC1 [Compound 331, 4-(5-chloro-2-methoxyphenyl)-1-(1,4-dioxaspiro[4.5]decan-8-yl)piperidine] | +++ (activity was measured to be less than 1.0 μM) | + (activity was measured to be greater than 5.0 μM) | + (activity was measured to be greater than 5.0 μM) | + (activity was measured to be greater than 5.0 μM)
9 |  |  |  |  | 25 to 100% | < 25% | < 25% | < 25% | COc1ccc(-c2cccc(F)c2)cc1C1CCN([C@H]2C[C@H]3CC[C@H]2C3)CC1 [Compound 366] | + (activity was measured to be greater than 5.0 μM) | + (activity was measured to be greater than 5.0 μM) | + (activity was measured to be greater than 5.0 μM) | + (activity was measured to be greater than 5.0 μM)
